Consider four compounds from patent US20160355530A1, “HEPATITIS C INHIBITORS AND USES THEREOF” (AbbVie Inc., priority 2010, published 2016).

The structures appear in SMILES notation. Read-outs that look alike come from different tables or passages of the source.

For experiment [1], the system named is chimeric replicon with genotype 3a NS5B. The experiment is described as follows: microbe, parasite or virus in culture. It is filed as cell-based, HCV genotype 3a. Conditions: Hepatitis C virus, read-out: 3a chimera 5% FBS EC50.
For experiment [2], the target named is T1, HCV NS5B polymerase 1a-H77 (Hepatitis C virus genotype 1a, UniProt P27958).
T1 construct: six-histidine tag; made in house; host or cells: E. coli
T1 sequence (P27958 2421-2990): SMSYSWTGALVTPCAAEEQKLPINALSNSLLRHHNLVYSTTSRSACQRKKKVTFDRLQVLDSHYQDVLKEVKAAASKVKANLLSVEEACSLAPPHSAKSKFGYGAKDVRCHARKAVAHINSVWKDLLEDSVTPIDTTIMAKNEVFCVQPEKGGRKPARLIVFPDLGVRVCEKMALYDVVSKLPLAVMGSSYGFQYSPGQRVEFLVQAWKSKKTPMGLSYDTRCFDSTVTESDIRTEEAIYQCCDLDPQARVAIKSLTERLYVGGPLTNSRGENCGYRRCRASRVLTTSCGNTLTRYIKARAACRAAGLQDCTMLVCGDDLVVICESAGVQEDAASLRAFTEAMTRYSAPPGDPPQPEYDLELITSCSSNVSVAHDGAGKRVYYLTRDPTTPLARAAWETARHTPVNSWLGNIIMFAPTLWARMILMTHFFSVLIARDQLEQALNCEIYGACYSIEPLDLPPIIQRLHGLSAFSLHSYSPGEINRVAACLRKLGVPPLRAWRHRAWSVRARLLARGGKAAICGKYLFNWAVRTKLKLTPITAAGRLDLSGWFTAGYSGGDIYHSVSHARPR
The experiment is described as follows: biochemical. Further details: species or system HCV genotype 1a. Conditions: enzyme, strain 1a H77; read-out: HCV Polymerase Strain 1a H77 IC50. In short, it runs like this:
(§1)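 E. coli-expressed NS5B (residues 1-570, His-tagged) transcribed a 2.1 kb HCV 1b negative-strand 3′-end RNA template (5 nM) with 20 μM CTP, 20 μM ATP and 0.284 μM [3H]UTP for 3 h at 30° C. Spermine-precipitated RNA was filter-captured and counted by scintillation; IC50 from nonlinear regression.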

Experiment [3] has as its system HCV NS5B polymerase 1a-H77-C316Y. Briefly: biochemical. Conditions: ratio of enzyme IC50s, 1a H77-C316Y / 1a H77. Further details: species or system HCV genotype 1a. In a few lines: as §1
For experiment [4], the target named is T2, HCV NS5B polymerase 1a-H77-C316Y (Hepatitis C virus genotype 1a, UniProt P27958, C2736Y).
T2 construct: six-histidine tag; made in house; host or cells: E. coli
T2 sequence (P27958 2421-2990 C2736Y): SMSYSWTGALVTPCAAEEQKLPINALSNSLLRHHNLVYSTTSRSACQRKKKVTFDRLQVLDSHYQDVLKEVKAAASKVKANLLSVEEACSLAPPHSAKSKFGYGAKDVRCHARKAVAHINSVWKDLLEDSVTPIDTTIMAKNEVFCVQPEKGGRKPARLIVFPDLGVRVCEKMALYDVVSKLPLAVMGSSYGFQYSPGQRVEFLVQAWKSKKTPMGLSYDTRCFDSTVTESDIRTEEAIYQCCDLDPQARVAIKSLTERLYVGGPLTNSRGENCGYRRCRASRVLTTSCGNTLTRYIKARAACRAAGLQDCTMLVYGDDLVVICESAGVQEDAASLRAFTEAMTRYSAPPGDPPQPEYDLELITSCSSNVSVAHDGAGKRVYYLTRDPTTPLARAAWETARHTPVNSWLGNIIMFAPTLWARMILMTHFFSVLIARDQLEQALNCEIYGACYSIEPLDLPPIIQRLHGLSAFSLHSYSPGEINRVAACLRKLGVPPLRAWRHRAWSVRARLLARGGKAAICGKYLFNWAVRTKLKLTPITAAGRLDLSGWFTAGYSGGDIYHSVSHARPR
The experiment is described as follows: biochemical. Further details: species or system HCV genotype 1a. In a few lines:
as §1

Experiment [5] concerns HCV 1a-H77 C316Y mutant subgenomic replicon. The experiment is described as follows: Stable replicon cell culture assay (luciferase), 1a-H77-C316Y mutant. The format is cell-based, HCV genotype 1a. Conditions: for EC50: Hepatitis C virus, read-out: Stable Replicon 1a H77-C316Y 5% FBS EC50; for Stable Replicon Fold Resistance C316Y/1a: ratio of stable replicon EC50s, C316Y / 1a H77.

In experiment [6] the target is T3, HCV NS5B polymerase 1b Rice (Hepatitis C virus genotype 1b, UniProt Q9WMX2).
T3 construct: six-histidine tag; made in house; host or cells: E. coli
Briefly: HCV NS5B polymerase enzymatic inhibition assay, strain 1b Rice. Conditions: enzyme. It is filed as biochemical, HCV genotype 1b. The procedure:
Purified HCV NS5B polymerase enzymes were used for polymerase inhibition assays. All recombinant HCV polymerases contained the first 570 amino acids of the 591 amino acid native protein sequence and a six-histidine tag at the N-terminus or C-terminus to facilitate purification by affinity chromatography. The DNA nucleotide sequence for the HCV polymerase 1b BK strain was codon optimized for expression in E. coli. A synthetic gene was prepared from a series of overlapping oligonucleotides that were filled in using a DNA polymerase and amplified by PCR. The patient isolate HCV polymerases were cloned by RT-PCR methods using HCV RNA extracted from the serum of infected subjects obtained from ProMedDx and BioCollections (genotypes 2a, 2b, 3a, and 4a). Laboratory strains were cloned from plasmid DNA (1a-H77 or 1a-H77-C316Y) or from existing replicon cells (1b Rice). In all cases the amplified DNA was cloned into a protein expression vector (typically a pET vector from Novagen) and then multiple clones were sequenced to identify one whose NS5B sequence agreed with the population sequence. This sequence-confirmed clone was then transfected into E. coli for protein expression and purification. E. coli cultures were grown to a maximum optical density (OD) of 2-3 and then induced with 0.4 mM isopropyl beta-D-thiogalactopyranoside (IPTG) and grown for 20 hours at 20° C.
Proteins were purified using nickel affinity chromatography, and additional column steps were added including, ion exchange, size exclusion, hydrophobic ion, and poly-U affinity chromatography, as needed, depending on the sample being purified. The template RNA used in the polymerase enzymatic assay was a 2.1 kb construct that corresponds to the 3′-end of an HCV genotype 1b negative strand RNA.
The reaction was initiated by the addition of 20 μM CTP, 20 μM ATP, 0.284 μM (0.5 μCi) of 5,6-[^3H] UTP, 5 nM template RNA and 0.1 U/μL RNase inhibitor (RNasin, Promega), and allowed to proceed for three hours at 30° C. The final reaction volume was 50 μL. The reaction was terminated by the addition of 50 uL of 4 mM spermine in 10 mM Tris-HCl, pH 7.5, 1 mM EDTA. The quenched reaction was allowed to incubate for at least 15 minutes at room temperature, and then the precipitated RNA was captured by filtration through a glass fiber filter (GF/B, Millipore) in a 96 well format. The filter plate was washed five times with 200 μL of 2 mM spermine, 10 mM Tris-HCl, pH 8.0, 1 mM EDTA, and two times with ethanol. After drying thoroughly in air, 30 μL of Microscint-20 scintillation cocktail (Perkin Elmer) was added to each well, and the retained cpm were determined by scintillation counting. IC50 values were determined by nonlinear regression.
% Inhibition=100*[[I]/([I]+[IC50])] equation 1
V=kcat[S]/2(Km+[S])*(sqrt((IC50+I−E)̂2+(4*IC50*E))−(IC50+I−E)) equation 2

Experiment [7] relates to HCV 1a-H77 subgenomic replicon. Briefly: microbe, parasite or virus in culture. The format is cell-based, HCV genotype 1a. Conditions: Hepatitis C virus, stable replicon.
Experiment [8] has as its system chimeric replicon with genotype 4a NS5B. The experiment is described as follows: microbe, parasite or virus in culture. The format is cell-based, HCV genotype 4a. As to conditions: Hepatitis C virus, read-out: 4a chimera 5% FBS EC50.
Experiment [9] deals with HCV 1a-H77 transient subgenomic replicon in Huh-7 derived cell line. The experiment is described as follows: microbe, parasite or virus in culture. It is filed as cell-based, HCV genotype 1a. As to conditions: Hepatitis C virus, Huh-7; transient replicon, 5% FBS; read-out: Transient Replicon 1a H77 5% FBS EC50. In a few lines: (§2)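 Transient format: T7-transcribed replicon RNA lacking Neo, electroporated into Huh-7-derived cells (5×10^3/well), input RNA checked by luciferase at 4 h. Three-fold compound dilution series, 0.5% DMSO, 4 days at 37° C; EC50 from luciferase signal in lysed cells.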

Experiment [10] has as its system HCV 1a-H77-C316Y transient subgenomic replicon in Huh-7 derived cell line. Briefly: microbe, parasite or virus in culture. It is filed as cell-based, HCV genotype 1a. As to conditions: for EC50: Hepatitis C virus, Huh-7, read-out: Transient Replicon 1a H77-C316Y 5% FBS EC50; for Transient Replicon Fold Resistance C316Y/1a: ratio of transient replicon EC50s, C316Y / 1a H77. In short, it runs like this: as §2

Setting [11] is: 5% FBS, absence of human plasma, read-out: Stable Replicon 1a H77 5% FBS EC50.
[12] abbreviates: strain 1a H77, 5% FBS + 40% human plasma, read-out: 1a H77 5% FBS + 40% Human Plasma EC50.
[13] abbreviates: strain 1a H77, 5% FBS, no human plasma, read-out: 1a H77 5% FBS EC50.
The mark [14] stands for this setting: strain 1a H77, 5% FBS, read-out: 1a H77 5% FBS EC50.

As for `CS(=O)(=O)N(CCO)c1cc2oc(-c3ccc(F)cc3)c(-c3ncc[nH]3)c2cc1C1CC1` [Example 109, N-[5-cyclopropyl-2-(4-fluorophenyl)-3-(1H-imidazol-2-yl)-1-benzofuran-6-yl]-N-(2-hydroxyethyl)methanesulfonamide], the EC50 came to 6.8 nM in experiment [1]; 467 nM in [5]; 19.8 nM in [7] (setting [11]); 420 nM in experiment [7] (setting [12]); 19.8 nM in [7] (setting [13]); 19.8 nM in experiment [7] (setting [14]). Moreover, the EC50 in experiment [8] came to 166 nM; in experiment [9] it was 38 nM; in experiment [10], 1300 nM. Also, the IC50 in experiment [2] came out at 5.9 nM; in experiment [4], 536 nM; in [6], 16.9 nM. In addition, the “C316Y/1a Fold Resistance” value in experiment [3] is 90 fold. In addition, the “Stable Replicon Fold Resistance C316Y/1a” value in experiment [5] came out at 23.6 fold. For the same compound, the “Transient Replicon Fold Resistance C316Y/1a” value in experiment [10] worked out at 34 fold.

With `CS(=O)(=O)CCCCN(c1cc2oc(-c3ccc(Nc4ccccc4)cc3)c(-c3ncc[nH]3)c2cc1C1CC1)S(C)(=O)=O` [Example 169, N-[2-(4-anilinophenyl)-5-cyclopropyl-3-(1H-imidazol-2-yl)-1-benzofuran-6-yl]-N-[4-(methylsulfonyl)butyl]methanesulfonamide], the EC50 in experiment [1] is 15 nM; in experiment [5], 11.4 nM; in experiment [7] (setting [11]), 2.1 nM; in experiment [7] (setting [12]) it was 14.8 nM; in experiment [7] (setting [13]), 2.1 nM; in [7] (setting [14]), 2.14 nM. The half-maximal effective concentration (EC50) in [8] was 4.3 nM; in [9], 0.6 nM; in experiment [10] it was 4.1 nM. Besides, the IC50 in experiment [2] turned out to be 6 nM; in experiment [4], 19.8 nM; in [6] it was 9.4 nM. Moreover, the “C316Y/1a Fold Resistance” value in experiment [3] is on record as 3 fold. In addition, in experiment [5], the “Stable Replicon Fold Resistance C316Y/1a” value worked out at 5.33 fold. The “Transient Replicon Fold Resistance C316Y/1a” value in experiment [10] turned out to be 6 fold.

Consider `CS(=O)(=O)N(CCO)c1cc2oc(-c3ccc(F)cc3)c(C3=NOCCN3)c2cc1C1CC1` [Example 136, N-[5-cyclopropyl-3-(5,6-dihydro-4H-1,2,4-oxadiazin-3-yl)-2-(4-fluorophenyl)-1-benzofuran-6-yl]-N-(2-hydroxyethyl)methanesulfonamide], for which the EC50 in experiment [1] was 42 nM; in experiment [5], 561 nM; in experiment [7] (setting [11]), 26.6 nM; in [7] (setting [12]), 347 nM; in experiment [7] (setting [13]), 26.6 nM; in experiment [7] (setting [14]), 26.6 nM. Also, the values for the 50% effective concentration (EC50) in [8], in experiment [9] and in experiment [10] were 291 nM, 32.4 nM and 679 nM, respectively. In addition, the half-maximal inhibitory concentration (IC50) came to 6.4 nM in experiment [2], 256 nM in [4] and 57 nM in experiment [6]. For the same compound, the “C316Y/1a Fold Resistance” value in experiment [3] was determined as 40 fold. Also, in [5], the “Stable Replicon Fold Resistance C316Y/1a” value stood at 42.0 fold. For the same compound, the “Transient Replicon Fold Resistance C316Y/1a” value in [10] is reported as 21 fold.

`CCCC/C=C/c1ccc(-c2oc3cc(N(CCCCS(C)(=O)=O)S(C)(=O)=O)c(C4CC4)cc3c2-c2ncc[nH]2)cc1` [Example 168, N-[5-cyclopropyl-2-{4-[(1E)-hex-1-en-1-yl]phenyl}-3-(1H-imidazol-2-yl)-1-benzofuran-6-yl]-N-[4-(methylsulfonyl)butyl]methanesulfonamide]: the EC50 in experiment [1] is 12.7 nM; in experiment [5], 17.6 nM; in experiment [7] (setting [11]), 1.8 nM; in [7] (setting [12]), 18.4 nM; in experiment [7] (setting [13]), 1.8 nM; in experiment [7] (setting [14]), 1.8 nM. The EC50 in experiment [8] amounted to 14.4 nM; in experiment [9], 0.6 nM; in [10], 14.4 nM. Moreover, the IC50 in experiment [2] amounted to 4.9 nM; in experiment [4], 8.5 nM; in experiment [6], 4.9 nM. Besides, in [3], the “C316Y/1a Fold Resistance” value turned out to be 2 fold. Further, the “Stable Replicon Fold Resistance C316Y/1a” value in [5] amounted to 9.72 fold. In experiment [10], the “Transient Replicon Fold Resistance C316Y/1a” value is 24 fold.
